Test results from BindingDB's records for doi:10.1046/j.1471-4159.2000.0750413.x (Oregon State University, 2000).

What follows are molecules tested against Cannabinoid receptor 1 (Taricha granulosa, UniProt Q9PUI7).
Sequence of Cannabinoid receptor 1 (Q9PUI7 whole entry): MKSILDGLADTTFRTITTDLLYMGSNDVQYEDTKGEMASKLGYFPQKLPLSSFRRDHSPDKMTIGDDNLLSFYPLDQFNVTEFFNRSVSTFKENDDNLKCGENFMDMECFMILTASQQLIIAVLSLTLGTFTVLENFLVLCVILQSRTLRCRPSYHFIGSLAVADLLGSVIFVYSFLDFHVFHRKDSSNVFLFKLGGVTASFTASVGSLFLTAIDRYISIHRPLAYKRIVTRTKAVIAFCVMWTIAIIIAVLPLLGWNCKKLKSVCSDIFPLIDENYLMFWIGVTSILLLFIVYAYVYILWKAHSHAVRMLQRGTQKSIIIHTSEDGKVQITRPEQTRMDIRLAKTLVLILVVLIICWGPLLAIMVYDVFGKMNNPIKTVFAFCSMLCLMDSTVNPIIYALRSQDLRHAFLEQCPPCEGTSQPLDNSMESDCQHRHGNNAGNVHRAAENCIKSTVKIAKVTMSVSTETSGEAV
CCCCC/C=C\C/C=C\C/C=C\C/C=C\CCCCCC(=O)NCCO showed a Ki of 2400 nM.
Molecule CCCCCCC(C)(C)c1ccc([C@H]2C[C@@H](O)CC[C@@H]2CCCO)c(O)c1 [CP-56667 [(+)-AC],XV] has a Ki of 3.8 nM.
CC(=O)Oc1cc(OC(C)CCCc2ccccc2)cc2c1C1CC(O)CCC1C(C)N2 (centres undefined) [NSC_107822] showed a Ki of 13 nM.
In the case of Cc1c(C(=O)c2cccc3ccccc23)c2cccc3c2n1[C@H](CN1CCOCC1)CO3 [WIN55212-2], the Ki is reported as 25.7 nM.
